Assay results reported in ChEMBL document CHEMBL1201862, “PubChem BioAssay data set” (2004).
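Each compound was tested at five concentrations against cells in 96-well plates for 48 hours. GI50: concentration for 50% inhibition of growth.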 Calls of active or inactive are those of the source. No stated cut-off is given here; in the data, active = GI50 up to about 1.1 µM and inactive = higher.

Tests used:
Experiment in all cases: DTP human tumour cell line panel, 48 h
[1] = tested on: T47D
[2] = tested on: Hs-578T
[3] = tested on: NCI/ADR-RES
[4] = tested on: UO-31
[5] = tested on: MCF7
[6] = tested on: ACHN
[7] = tested on: HCT-116
[8] = tested on: SW-620
[9] = tested on: UACC-257
[10] = tested on: RXF 393
[11] = tested on: SF-295
[12] = tested on: SNB-75
[13] = tested on: MOLT-4
[14] = tested on: CAKI-1
[15] = tested on: COLO 205
[16] = tested on: MDA-N
[17] = tested on: 786-0
[18] = tested on: SN12C
[19] = tested on: MDA-MB-435
[20] = tested on: SF-268
[21] = tested on: NCI-H522
[22] = tested on: DU-145
[23] = tested on: SF-539
[24] = tested on: M14
[25] = tested on: HT-29
[26] = tested on: OVCAR-5
[27] = tested on: KM12
[28] = tested on: OVCAR-4
[29] = tested on: CCRF-CEM
[30] = tested on: UACC-62
[31] = tested on: SK-OV-3
[32] = tested on: HOP-92
[33] = tested on: Malme-3M
[34] = tested on: HCT-15
[35] = tested on: SK-MEL-5
[36] = tested on: BT-549
[37] = tested on: U-251
[38] = tested on: A549
[39] = tested on: PC-3
[40] = tested on: HOP-62
[41] = tested on: A498
[42] = tested on: LOX IMVI
[43] = tested on: HCC 2998
[44] = tested on: SK-MEL-2
[45] = tested on: EKVX
[46] = tested on: OVCAR-8
[47] = tested on: IGROV-1
[48] = tested on: OVCAR-3
[49] = tested on: NCI-H460
[50] = tested on: TK-10
[51] = tested on: NCI-H226
[52] = tested on: MDA-MB-231
[53] = tested on: K562
[54] = tested on: SK-MEL-28
[55] = tested on: SNB-19
[56] = tested on: NCI-H23
[57] = tested on: HL-60
[58] = tested on: RPMI-8226

Compound: OC1[C@@H]2[C@@H](O)[C@H](O)[C@@H](O)N2C[C@@H]1O (some centres undefined)
- GI50 [1]: > 100 µM (inactive)
- GI50 [2]: > 100 µM (inactive)
- GI50 [3]: > 100 µM (inactive)
- GI50 [4]: > 100 µM (inactive)
- GI50 [5]: > 100 µM (inactive)
- GI50 [6]: > 100 µM (inactive)
- GI50 [7]: > 100 µM (inactive)
- GI50 [8]: > 100 µM (inactive)
- GI50 [9]: > 100 µM (inactive)
- GI50 [10]: > 100 µM (inactive)
- GI50 [11]: > 100 µM (inactive)
- GI50 [12]: > 100 µM (inactive)
- GI50 [13]: > 100 µM (inactive)
- GI50 [14]: > 100 µM (inactive)
- GI50 [15]: > 100 µM (inactive)
- GI50 [16]: > 100 µM (inactive)
- GI50 [17]: > 100 µM (inactive)
- GI50 [18]: > 100 µM (inactive)
- GI50 [19]: > 100 µM (inactive)
- GI50 [20]: > 100 µM (inactive)
- GI50 [21]: > 100 µM (inactive)
- GI50 [22]: > 100 µM (inactive)
- GI50 [23]: > 100 µM (inactive)
- GI50 [24]: > 100 µM (inactive)
- GI50 [25]: > 100 µM (inactive)
- GI50 [26]: > 100 µM (inactive)
- GI50 [27]: > 100 µM (inactive)
- GI50 [28]: > 100 µM (inactive)
- GI50 [29]: > 100 µM (inactive)
- GI50 [30]: > 100 µM (inactive)
- GI50 [31]: > 100 µM (inactive)
- GI50 [32]: > 100 µM (inactive)
- GI50 [33]: > 100 µM (inactive)
- GI50 [34]: > 100 µM
- GI50 [35]: > 100 µM (inactive)
- GI50 [36]: > 100 µM (inactive)
- GI50 [37]: > 100 µM (inactive)
- GI50 [38]: > 100 µM (inactive)
- GI50 [39]: > 100 µM (inactive)
- GI50 [40]: > 100 µM (inactive)
- GI50 [41]: > 100 µM (inactive)
- GI50 [42]: > 100 µM (inactive)
- GI50 [43]: > 100 µM (inactive)
- GI50 [44]: > 100 µM (inactive)
- GI50 [45]: > 100 µM (inactive)
- GI50 [46]: > 100 µM (inactive)
- GI50 [47]: > 100 µM (inactive)
- GI50 [48]: > 100 µM (inactive)
- GI50 [49]: > 100 µM (inactive)
- GI50 [50]: > 100 µM (inactive)
- GI50 [51]: > 100 µM (inactive)
- GI50 [52]: > 100 µM (inactive)
- GI50 [53]: > 100 µM (inactive)
- GI50 [54]: > 100 µM (inactive)
- GI50 [55]: > 100 µM (inactive)
- GI50 [56]: > 100 µM (inactive)

Compound: NC(=O)Cc1nc2c(O)ncnc2n1C1OC(CO)C(O)C1O (centres undefined)
- GI50 [1]: > 100 µM (inactive)
- GI50 [2]: > 100 µM (inactive)
- GI50 [57]: > 100 µM (inactive)
- GI50 [3]: > 100 µM (inactive)
- GI50 [4]: > 100 µM (inactive)
- GI50 [5]: > 100 µM (inactive)
- GI50 [6]: > 100 µM (inactive)
- GI50 [7]: > 100 µM (inactive)
- GI50 [8]: > 100 µM (inactive)
- GI50 [9]: > 100 µM (inactive)
- GI50 [10]: > 100 µM (inactive)
- GI50 [11]: > 100 µM (inactive)
- GI50 [12]: > 100 µM (inactive)
- GI50 [13]: > 100 µM (inactive)
- GI50 [14]: > 100 µM (inactive)
- GI50 [58]: > 100 µM (inactive)
- GI50 [15]: > 100 µM (inactive)
- GI50 [16]: > 100 µM (inactive)
- GI50 [17]: > 100 µM (inactive)
- GI50 [18]: > 100 µM (inactive)
- GI50 [19]: > 100 µM (inactive)
- GI50 [20]: > 100 µM (inactive)
- GI50 [21]: > 100 µM (inactive)
- GI50 [22]: > 100 µM (inactive)
- GI50 [23]: > 100 µM (inactive)
- GI50 [24]: > 100 µM (inactive)
- GI50 [25]: > 100 µM (inactive)
- GI50 [26]: > 100 µM (inactive)
- GI50 [27]: > 100 µM (inactive)
- GI50 [28]: > 100 µM (inactive)
- GI50 [29]: > 100 µM (inactive)
- GI50 [30]: > 100 µM (inactive)
- GI50 [31]: > 100 µM (inactive)
- GI50 [32]: > 100 µM (inactive)
- GI50 [33]: > 100 µM (inactive)
- GI50 [34]: > 100 µM
- GI50 [35]: > 100 µM (inactive)
- GI50 [36]: > 100 µM (inactive)
- GI50 [37]: > 100 µM (inactive)
- GI50 [38]: > 100 µM (inactive)
- GI50 [39]: > 100 µM (inactive)
- GI50 [40]: > 100 µM (inactive)
- GI50 [41]: > 100 µM (inactive)
- GI50 [42]: > 100 µM (inactive)
- GI50 [43]: > 100 µM (inactive)
- GI50 [44]: > 100 µM (inactive)
- GI50 [45]: > 100 µM (inactive)
- GI50 [46]: > 100 µM (inactive)
- GI50 [47]: > 100 µM (inactive)
- GI50 [48]: > 100 µM (inactive)
- GI50 [49]: > 100 µM (inactive)
- GI50 [50]: > 100 µM (inactive)
- GI50 [51]: > 100 µM (inactive)
- GI50 [52]: > 100 µM (inactive)
- GI50 [53]: > 100 µM (inactive)
- GI50 [54]: > 100 µM (inactive)
- GI50 [55]: > 100 µM (inactive)
- GI50 [56]: > 100 µM (inactive)
